Laboratory results published in patent publication US20070292351A1, “Assay for efficacy of histone deacetylase inhibitors” (Methylgene, Inc., priority 2006, published 2007).

Legend:
peripheral white cells = assay: Cytokine/chemokine transcription in peripheral white cells treated ex vivo; assay type: cell-based, human
Description: FIG. 15 Induction of transcription of IL-6, IL-8, IL-1b, MIP1b cytokine/chemokines by MGCD0103 in peripheral white cells ex vivo from a MDS patient and in vivo in an AML patient with response (Patient J).
Whole blood from either consenting healthy volunteers or consenting patients was centrifuged at 2500 rpm for 10 minutes at ambient temperature in a Sorvall RT-7 centrifuge (Mandel Scientific Co., Guelph, Ontario). Plasma was removed and buffy coat was collected. Five volumes of Erythrocyte Lysis Buffer (EL) (Qiagen Canada Inc., Mississauga, Ontario) were added into buffy coat. Buffy coat was incubated on ice for 20 minutes before it was centrifuged at 400 g for 10 minutes at 4° C. Supernatant was removed and buffy coat was washed twice with EL buffer and re-centrifuged. Buffy coat was resuspended in RPMI media and cells were counted with trypan blue exclusion. To isolate PBMCs, buffy coat cells were centrifuged over Lymphoprep (Axis-Shield, 1114544), and any remaining erythrocytes in the sample were lysed by treatment with EL lysis buffer (Qiagen, 79217). The cell pellets are washed and then re-suspended in RPMI containing 10% FBS.

[1] = test system: H4 acetylation in human H460 tumors; assay: H4Ac immunoblot analysis of H460 tumors in nude mice; assay type: in vivo, nude mice (Balb/c); conditions: 100 mg/kg oral, immunoblot normalized to total histones (FIG. 5B)
Description: FIG. 5 Induction of MT3 and p21 in implanted human NSCLC H460 tumors in vivo in nude mice. Nude mice (Balb/c) bearing human H460 tumors were treated with 100 mg/kg MGCD0103 or 0.5% HEC (Vehicle) by oral administration. After 6 h or 24 h, three mice from each group were sacrificed, their tumors harvested and analyzed. Panel A: p21 and MT3 RNA levels quantified by conventional semi-quantitative PCR, normalized to β-actin. Panel B: H4Ac level detected by immunoblot analysis, normalized to total histones.
Human non-small cell lung carcinoma NSCLC-H460 cells (2 million) were injected subcutaneously in the animal flank and allowed to form solid tumors. Tumor fragments were passaged in animals for a minimum of three times before their use. Tumor fragments (about 30 mg) were implanted subcutaneously through a small surgical incision under general anesthesia to Balb/cA female nude mice (6-8 weeks old). Recipient animals were treated with either vehicle (0.1 N HCl) or MGCD0103 (2HBr salt, in 0.1 N HCl) 100 mg/kg orally. Tumors were harvested after one dose of either 6 hour or 24 hours post administration of vehicle or MGCD0103. Each experimental group contained 3 animals. Tumor tissues were deposited in RNAlater (Qiagen, Missisauga Ontario) for total RNA extraction.

histone H3 acetylation = assay: Histone acetylation of nuclear extracts from white blood cells; assay type: in vivo, human; conditions: AML Patient A with clinical response (FIG. 9)
Description: Human white peripheral cells were resuspended in 50 ul cold lysis buffer (10 mM Tris-HCl pH8.0, 1.5 mM MgCl2, 5 mM KCl, 0.5% NP-40, 5 mM Na butyrate plus protease inhibitors) and incubated on ice for 10 min. Cells were centrifuged at […] in an IEC Micromax centrifuge (Fisher Scientific Ltd., Nepean, Ontario) at 4° C. for 10-15 min and nuclei collected. Nuclei were washed with 50 ul lysis buffer by centrifugation at 2000 rpm at 4° C. for 10-15 min. Nuclei were resuspended in 35 ul ice cold Nuclear Lysis buffer (50 mM HEPES pH7.5, 500 mM NaCl, 1% NP-40, 1 mM EDTA, 10% glycerol, 5 mM NaButyrate and protease inhibitors) and sonicated 10 seconds using a VirSonic 300 sonicator (VirTis, Gardiner, N.Y.). Lysed nuclei were centrifuged at 15000 rpm at 4° C. for 5 min and supernatant collected for ELISA.
Black plates were coated with 50 ul of diluted anti-Histone antibodies (H11-4, Chemicon, Temecula, Calif.) (1:1000 in TBS) and incubated at ambient temperature for 2 hours. Plates were washed twice with 50 ul of PBS and blocked with 1% BSA+0.1% TritonX-100 in PBS (50 ul) for 45 minutes. […] Fluoroscence development was allowed for 60 minutes in foil and plates were read on a fluorometer (Gemini XS, Molecular Devices, Sunnyvale, Calif.) at Excitation at 550 nm and emission at 610 nm with a cutoff of 590 nm (Auto PMT, 15 reads/well). Data were analyzed using Excel.

## Nc1ccccc1NC(=O)c1ccc(CNc2nccc(-c3cccnc3)n2)cc1 [MGCD0103]
Peripheral white cells; peripheral white cells ex vivo from a MDS patient (Patient J) (FIG. 15)
  induction of transcription of IL-6, IL-8, IL-1b, MIP1b: induction
Peripheral white cells; peripheral white cells from healthy volunteers treated ex vivo (FIG. 15)
  induction of transcription of IL-6, IL-8, IL-1b, MIP1b: No such induction
[1]
  H4 acetylation in tumors: detectable only after 6 h of treatment
Histone H3 acetylation
  induction of histone H3 acetylation in peripheral white cells: induction
